{"source": "patent US20120149080A1", "about": "“YEAST PRODUCTION CULTURE FOR THE PRODUCTION OF BUTANOL” (Butamax(TM) Advanced Biofuels LLC, priority 2010, published 2012)", "type_in_all_cases": "cell-based", "key": {"[1]": {"test_system": "Saccharomyces cerevisiae BY4743", "test": "24 hour survival (CFU) at low and high cell density", "protocol": "Saccharomyces cerevisiae BY4743 (ATCC 201390) was plated from a freezer vial onto YPD agar (Teknova, Hollister, Calif.; Cat. #Y1000) and incubated overnight at 30° C. Cells from the YPD plate were inoculated into a 25 ml pre-culture of YPD broth (Teknova; Cat. #Y5000) with an initial OD600 of 0.06 to 0.08. The pre-culture was grown for 7 hours in an aerobic shaker at 30° C. An aliquot of the pre-culture was inoculated into 200 ml of YPD broth, with an initial OD600 of 0.06 to 0.08, and this culture was incubated with aeration at 30° C. for approximately 17 hours. The optical density of the culture was measured, the culture was centrifuged and the cells were resuspended to yield an OD600 of 5 in fresh YPD broth. This is referred to as a high cell density (HCD) culture. […] This is referred to as a low the cell density (LCD) culture. These cultures were incubated at 30° C. with shaking for 30 minutes for an acclimation period. At the end of the 30 minute acclimation period, the OD600 was measured. 5 ml of low or high cell density culture was dispensed to 15 ml conical tubes which contained different concentrations of the alcohol to be tested. A control tube included no alcohol. The tubes were placed in a rotary drum at 30° C. and incubated for 24 hours. The time of addition of cells was referred to as “time 0”. […] Colony forming units (CFUs) were determined on YPD plates at time 0 for the control and at 24 hours for each of the cultures, including the control culture, using standard microbiological methods. […] Colonies were counted after 48 hours, and CFUs/ml were calculated. At time 0, the low cell density cultures had about 4.8×10^5 CFUs/ml, and the high cell density cultures had about 5.4×10^7 CFUs/ml."}, "[2]": {"test_system": "Saccharomyces cerevisiae BY4743", "test": "Glucose utilization rate in high cell density culture in YPD", "protocol": "Saccharomyces cerevisiae BY4743 was plated from a freezer vial onto YPD agar (Teknova, Hollister, Calif.; Cat. #Y1000) and incubated overnight at 30° C. Cells from the YPD plate were inoculated into a 25 ml pre-culture of YPD broth (Teknova, Hollister, Calif.; Cat. #Y5000) with an initial OD600 of 0.06 to 0.08, and this culture was grown for 7 hours in an air shaker at 30° C. An aliquot of the pre-culture was inoculated into 200 ml of YPD broth with an initial OD600 of 0.06 to 0.08, and this culture was incubated with aeration at 30° C. for approximately 17 hours. The optical density of the culture was determined, the culture was centrifuged and the cells were resuspended in fresh YPD broth to yield an OD600 of 8. […] Time of addition of cells was referred to as 0 hours. At various times, samples (1.5 ml) were withdrawn and centrifuged at 10,000 rpm for 2 minutes in a microfuge (Sorvall Biofuge pico). […] YSI, Inc., Yellow Springs, Ohio). Glucose consumption rates in the presence of isobutanol were also determined when the cell concentration was 18 gdcw/L or 24 gdcw/L. Cells from the YPD plate were inoculated into a 25 ml pre-culture of YPD broth (Teknova, Hollister, Calif. Cat. #Y5000) with an initial OD600 of 0.06 to 0.08, and this culture was grown for 7 hours in an air shaker at 30° C. […] The optical density of the culture was determined, the culture was centrifuged and the cells were resuspended in fresh YPD broth to yield an OD600 of 38 (18 gdcw/L). […] The experiment was repeated except that the starting OD600 was 49.1 (24 gdcw/L). […] The results for BY4743 are graphed in FIG. 4."}, "[3]": {"test_system": "Issatchenkia orientalis PNY0660", "test": "Glucose utilization rate in high cell density culture in corn test medium", "details": "for Glucose utilization rate: 30 C., 0 h to 6 h, 2.7 gdcw/L, corn test medium", "protocol": "Strain Issatchenkia orientalis PNY0660, was derived from ATCC 20381 strain that was previously referred to as Candida acidothermophilium. Strain PNY0660 was plated from a freezer vial onto YPD agar (Teknova, Hollister, Calif.; Cat. #Y1000) and incubated overnight at 30° C. Cells from the YPD plate were inoculated into a 50 ml pre-culture of YPD broth (Teknova, Hollister, Calif.; Cat. #Y5000) with an initial OD600 of 0.06 to 0.08, and this culture was grown for 5 hours in an air shaker at 30° C. An aliquot of the pre-culture was inoculated into 200 ml of YPD broth with an initial OD600 of 0.6, and this culture was incubated with aeration at 30° C. for approximately 17 hours. The optical density of the culture was determined, the culture was centrifuged, and the sugar consumption rate was determined in corn test medium. Corn test medium contained 0.2% casamino acids and 2% glucose and 100 mM MES buffer pH 5.25 and per liter contained (i) salts: ammonium sulfate 5.0 g, potassium phosphate monobasic 2.8 g, and magnesium sulfate heptahydrate 0.5 g, (ii) vitamins: biotin (D−) 0.40 mg, Ca D(+) panthotenate 8.00 mg, myo-inositol 200.00 mg, pyridoxol hydrochloride 8.00 mg, p-aminobenzoic acid 1.60 mg, riboflavin 1.60 mg, folic acid 0.02 mg, niacin 30.0 mg, and thiamine 30 mg; and (iii) trace elements: EDTA (Titriplex 1117) 99.38 mg, zinc sulphate heptahydrate 29.81 mg, manganese chloride dehydrate 5.57 mg, cobalt(II)chloride hexahydrate 1.99 mg, copper(II)sulphate pentahydrate 1.99 mg, Di-sodium molybdenum dehydrate 2.65 mg, calcium chloride dehydrate 29.81 mg, iron sulphate heptahydrate 19.88 mg, and boric acid.\n20 ml cultures (2.7 gdcw/L) in corn test medium were transferred to flasks that contained 0.0%, 0.5%, 1.0%, 1.5%, 1.75% or 2.0% isobutanol. Time of addition of cells was referred to as 0 hours. At various times, samples (1.5 ml) were withdrawn and centrifuged at 10,000 rpm for 2 minutes in a microfuge (Sorvall Biofuge pico). The supernatant was filtered through a 0.2 μm filter (Pall Life Sciences, Port Washington, N.Y.) Pall GHP Acrodisc 13 mm Syringe Filter with 0.2 μm GHP Membrane), the filtrate was diluted ten-fold, and the glucose concentration was determined using a YSI Glucose Analyzer (YSI 2700 Select; YSI, Inc., Yellow Springs, Ohio)."}, "[4]": {"details": "1.5% isobutanol, 3.8 and 24 gdcw/L cultures"}}}
{"smiles": "CC(C)CO", "note": "[Isobutanol, isobutanol]", "values": [{"measurement": "Percent Survival HCD (%)", "setting": "[1]; 1.0% (w/v) alcohol, high cell density OD600 5", "result": 77.8, "unit": "%"}, {"measurement": "Percent Survival LCD (%)", "setting": "[1]; 1.0% (w/v) alcohol, low cell density OD600 0.05", "result": 0.6, "unit": "%"}, {"measurement": "Percent Survival HCD (%)", "setting": "[1]; 1.5% (w/v) alcohol, high cell density", "result": 45.1, "unit": "%"}, {"measurement": "Percent Survival LCD (%)", "setting": "[1]; 1.5% (w/v) alcohol, low cell density", "result": 0.1, "unit": "%"}, {"measurement": "Percent Survival HCD (%)", "setting": "[1]; 2.5% (w/v) alcohol, high cell density", "result": "<0.001", "unit": "%"}, {"measurement": "Percent Survival LCD (%)", "setting": "[1]; 2.5% (w/v) alcohol, low cell density", "result": "<0.001", "unit": "%"}, {"measurement": "calculated rate of glucose utilization", "setting": "[2]; 1% isobutanol, high cell density cultures", "result": "at least 1.4 gram per gdcw per hour"}, {"measurement": "glucose consumption rate", "setting": "[2]; [4]", "result": "about 1.1 g/gdcw/h"}, {"measurement": "glucose consumption rate, % of the control rate", "setting": "[2]; [4]", "result": "approximately 50%"}, {"measurement": "rate of glucose utilization", "setting": "[2]; 1.5% isobutanol, 3.8 gdcw/L and 24 gdcw/L cultures", "result": "at least 1 gram per gdcw per hour"}, {"measurement": "rate of glucose utilization", "setting": "[2]; 2% isobutanol, high cell density cultures", "result": "at least 0.5 gram per gdcw per hour"}, {"measurement": "rate of glucose utilization", "setting": "[2]; 2.5% isobutanol, high cell density cultures", "result": "at least 0.4 gram per gdcw per hour"}, {"measurement": "rate of glucose utilization", "setting": "[2]; 3% isobutanol, high cell density cultures", "result": "at least 0.2 gram per gdcw per hour"}, {"measurement": "Glucose utilization rate", "setting": "[3]; 5.0 g/L isobutanol", "result": 2.4, "unit": "g/gdcw/h"}, {"measurement": "Glucose utilization rate", "setting": "[3]; 10.0 g/L isobutanol", "result": 2.4, "unit": "g/gdcw/h"}, {"measurement": "Glucose utilization rate", "setting": "[3]; 15.0 g/L isobutanol", "result": 1.4, "unit": "g/gdcw/h"}, {"measurement": "Glucose utilization rate", "setting": "[3]; 17.5 g/L isobutanol", "result": 0.9, "unit": "g/gdcw/h"}, {"measurement": "Glucose utilization rate", "setting": "[3]; 20.0 g/L isobutanol", "result": 0.7, "unit": "g/gdcw/h"}, {"measurement": "sugar consumption rate", "setting": "[3]; I. orientalis strains, 20 g/l of isobutanol", "result": 0.7, "unit": "g/gdw/h"}]}
